Results from US8598365B2, “Herbicides” (Syngenta Limited, priority 2007, dated 2013).

Columns and labels:
Experiment in all cases: Example B post-emergence herbicidal activity
Format in all cases: in vivo
[1] = test system: Alopecurus myosuroides (ALOMY); conditions: 312 h, rate 250 g/ha, evaluated after 13 days, read-out: Post-emergence activity ALOMY (100=total damage to plant; 0=no damage to plant)
Protocol: (§1) Seeds of a variety of test species were sown in standard soil in pots. After cultivation for one day (pre-emergence) or after 8 days cultivation (post-emergence) under controlled conditions in a glasshouse (at 24/16° C., day/night; 14 hours light; 65% humidity), the plants were sprayed with an aqueous spray solution derived from the formulation of the technical active ingredient in acetone/water (50:50) solution containing 0.5% Tween 20 (polyoxyethelyene sorbitan monolaurate, CAS RN 9005-64-5).
(§2) The test plants were then grown in a glasshouse under controlled conditions in a glasshouse (at 24/16° C., day/night; 14 hours light; 65% humidity) and watered twice daily. After 13 days for pre and post-emergence, the test was evaluated (100=total damage to plant; 0=no damage to plant).
(§3) Alopecurus myosuroides (ALOMY), Avena fatua (AVEFA), Setaria faberi (SETFA), Echinochloa crus-galli (ECHCG), Solanum nigrum (SOLNI) and Amaranthus retoflexus (AMARE)

Setaria faberi (SETFA) = conditions: 312 h, rate 250 g/ha, evaluated after 13 days, read-out: Post-emergence activity SETFA (100=total damage to plant; 0=no damage to plant)
Protocol: as §1, §2, §3

[2] = test system: Echinochloa crus-galli (ECHCG); conditions: 312 h, rate 250 g/ha, evaluated after 13 days, read-out: Post-emergence activity ECHCG (100=total damage to plant; 0=no damage to plant)
Protocol: as §1, §2, §3

[3] = test system: Amaranthus retoflexus (AMARE); conditions: Amaranthus retroflexus, 312 h, rate 250 g/ha, evaluated after 13 days, read-out: Post-emergence activity AMARE (100=total damage to plant; 0=no damage to plant)
Protocol: as §1, §2, §3

Avena fatua (AVEFA) = conditions: 312 h, rate 250 g/ha, evaluated after 13 days, read-out: Post-emergence activity AVEFA (100=total damage to plant; 0=no damage to plant)
Protocol: as §1, §2, §3

Which pest or weed control at 250 g/ha [1] does the source give for `Cc1sc(-c2ccc(Cl)cc2)nc1C1C(=O)[C@H]2C[C@@H](C1=O)C2(C)C` (some centres unmarked) [Compound T120] here?
The pest or weed control at 250 g/ha was 40%.

What about the pest or weed control at 250 g/ha (Setaria faberi (SETFA)) of the same compound?
Its pest or weed control at 250 g/ha is 90%.

And the pest or weed control at 250 g/ha [2]?
The pest or weed control at 250 g/ha was 100%.

What about the pest or weed control at 250 g/ha [3] of the same compound?
Its pest or weed control at 250 g/ha is 0%.

What about the pest or weed control at 250 g/ha (Avena fatua (AVEFA)) of the same compound?
Its pest or weed control at 250 g/ha is 60%.

Which pest or weed control at 250 g/ha [1] does the source give for `C=Cc1ccc(-c2nc(C3C(=O)[C@@H]4CC[C@@H](C4)C3=O)c(CC)s2)cc1` (some centres unmarked) [Compound T113] here?
The pest or weed control at 250 g/ha was 90%.

What about the pest or weed control at 250 g/ha (Setaria faberi (SETFA)) of the same compound?
The pest or weed control at 250 g/ha was 90%.

What about the pest or weed control at 250 g/ha [2] of the same compound?
The pest or weed control at 250 g/ha was 100%.

And the pest or weed control at 250 g/ha [3]?
The pest or weed control at 250 g/ha was 0%.

And the pest or weed control at 250 g/ha (Avena fatua (AVEFA))?
The pest or weed control at 250 g/ha was 100%.

Which pest or weed control at 250 g/ha [1] does the source give for `CCc1sc(-c2ccc(C(=O)OC)cc2)nc1C1C(=O)[C@@H]2CC[C@@H](C2)C1=O` (some centres unmarked) [Compound T107] here?
Its pest or weed control at 250 g/ha is 0%.

What about the pest or weed control at 250 g/ha (Setaria faberi (SETFA)) of the same compound?
The pest or weed control at 250 g/ha was 0%.

What about the pest or weed control at 250 g/ha [2] of the same compound?
The pest or weed control at 250 g/ha was 60%.

And the pest or weed control at 250 g/ha [3]?
The pest or weed control at 250 g/ha was 0%.

What about the pest or weed control at 250 g/ha (Avena fatua (AVEFA)) of the same compound?
The pest or weed control at 250 g/ha was 0%.

What does the source list for `Cc1scnc1C1C(=O)[C@@H]2CC[C@@H](C2)C1=O` (some centres unmarked) [Compound T52]?
pest or weed control at 250 g/ha [1]: 0%; pest or weed control at 250 g/ha (Setaria faberi (SETFA)): 0%; pest or weed control at 250 g/ha [2]: 0%; pest or weed control at 250 g/ha [3]: 0%; pest or weed control at 250 g/ha (Avena fatua (AVEFA)): 0%

Which results are given for `Cc1nc(-c2ccc(Cl)c(Cl)c2)sc1C1C(=O)[C@@H]2CC[C@@H](C2)C1=O` (some centres unmarked) [Compound T48]?
pest or weed control at 250 g/ha [1]: 20%; pest or weed control at 250 g/ha (Setaria faberi (SETFA)): 80%; pest or weed control at 250 g/ha [2]: 80%; pest or weed control at 250 g/ha [3]: 0%; pest or weed control at 250 g/ha (Avena fatua (AVEFA)): 0%

`Cc1sc(-c2ccc(C=O)cc2)nc1C1=C(OC(=O)C(C)(C)C)[C@H]2CC[C@H](C2)C1=O` [Compound P23] was tested. Which pest or weed control at 250 g/ha [1] did it give?
The pest or weed control at 250 g/ha was 0%.

And the pest or weed control at 250 g/ha (Setaria faberi (SETFA))?
Its pest or weed control at 250 g/ha is 30%.

What about the pest or weed control at 250 g/ha [2] of the same compound?
Its pest or weed control at 250 g/ha is 20%.

And the pest or weed control at 250 g/ha [3]?
Its pest or weed control at 250 g/ha is 0%.

What about the pest or weed control at 250 g/ha (Avena fatua (AVEFA)) of the same compound?
Its pest or weed control at 250 g/ha is 0%.

Which pest or weed control at 250 g/ha [1] does the source give for `Cc1ncc(-c2ccc(Cl)cc2)cc1C1C(=O)[C@@H]2CC[C@@H](C2)C1=O` (some centres unmarked) [Compound T118] here?
The pest or weed control at 250 g/ha was 60%.

And the pest or weed control at 250 g/ha (Setaria faberi (SETFA))?
Its pest or weed control at 250 g/ha is 80%.

And the pest or weed control at 250 g/ha [2]?
The pest or weed control at 250 g/ha was 60%.

And the pest or weed control at 250 g/ha [3]?
The pest or weed control at 250 g/ha was 0%.

And the pest or weed control at 250 g/ha (Avena fatua (AVEFA))?
The pest or weed control at 250 g/ha was 80%.

Which pest or weed control at 250 g/ha [1] does the source give for `CCc1sc(-c2ccsc2)nc1C1C(=O)[C@@H]2CC[C@@H](C2)C1=O` (some centres unmarked) [Compound T97] here?
Its pest or weed control at 250 g/ha is 0%.

And the pest or weed control at 250 g/ha (Setaria faberi (SETFA))?
The pest or weed control at 250 g/ha was 70%.

And the pest or weed control at 250 g/ha [2]?
The pest or weed control at 250 g/ha was 70%.

And the pest or weed control at 250 g/ha [3]?
The pest or weed control at 250 g/ha was 0%.

What about the pest or weed control at 250 g/ha (Avena fatua (AVEFA)) of the same compound?
Its pest or weed control at 250 g/ha is 0%.

What does the source list for `Cc1sc(-c2cccc(Cl)c2Cl)nc1C1C(=O)[C@@H]2CC[C@@H](C2)C1=O` (some centres unmarked) [Compound T62]?
pest or weed control at 250 g/ha [1]: 0%; pest or weed control at 250 g/ha (Setaria faberi (SETFA)): 60%; pest or weed control at 250 g/ha [2]: 0%; pest or weed control at 250 g/ha [3]: 0%; pest or weed control at 250 g/ha (Avena fatua (AVEFA)): 0%

Which results are given for `Cc1sc(-c2ccccc2Cl)nc1C1C(=O)[C@@H]2CC[C@@H](C2)C1=O` (some centres unmarked) [Compound T71]?
pest or weed control at 250 g/ha [1]: 0%; pest or weed control at 250 g/ha (Setaria faberi (SETFA)): 50%; pest or weed control at 250 g/ha [2]: 20%; pest or weed control at 250 g/ha [3]: 0%; pest or weed control at 250 g/ha (Avena fatua (AVEFA)): 0%

`Cc1sc(CC(C)C)nc1C1C(=O)[C@@H]2CC[C@@H](C2)C1=O` (some centres unmarked) [Compound T61] was tested. Which pest or weed control at 250 g/ha [1] did it give?
Its pest or weed control at 250 g/ha is 0%.

What about the pest or weed control at 250 g/ha (Setaria faberi (SETFA)) of the same compound?
The pest or weed control at 250 g/ha was 20%.

And the pest or weed control at 250 g/ha [2]?
Its pest or weed control at 250 g/ha is 0%.

And the pest or weed control at 250 g/ha [3]?
The pest or weed control at 250 g/ha was 0%.

What about the pest or weed control at 250 g/ha (Avena fatua (AVEFA)) of the same compound?
Its pest or weed control at 250 g/ha is 0%.

`CCc1sc(-c2ccc(Cl)cc2)[n+]([O-])c1C1C(=O)[C@@H]2CC[C@@H](C2)C1=O` (some centres unmarked) [Compound T89] was tested. Which pest or weed control at 250 g/ha [1] did it give?
The pest or weed control at 250 g/ha was 0%.

What about the pest or weed control at 250 g/ha (Setaria faberi (SETFA)) of the same compound?
Its pest or weed control at 250 g/ha is 80%.

What about the pest or weed control at 250 g/ha [2] of the same compound?
Its pest or weed control at 250 g/ha is 30%.

What about the pest or weed control at 250 g/ha [3] of the same compound?
Its pest or weed control at 250 g/ha is 0%.

And the pest or weed control at 250 g/ha (Avena fatua (AVEFA))?
The pest or weed control at 250 g/ha was 0%.

With `Cc1sc(-c2ccc(Br)cc2)nc1C1C(=O)[C@H]2C[C@@H](C1=O)C2(C)C` (some centres unmarked) [Compound T121] as the compound, how does the pest or weed control at 250 g/ha [1] read?
Its pest or weed control at 250 g/ha is 70%.

And the pest or weed control at 250 g/ha (Setaria faberi (SETFA))?
Its pest or weed control at 250 g/ha is 90%.

And the pest or weed control at 250 g/ha [2]?
The pest or weed control at 250 g/ha was 100%.

And the pest or weed control at 250 g/ha [3]?
The pest or weed control at 250 g/ha was 0%.

And the pest or weed control at 250 g/ha (Avena fatua (AVEFA))?
Its pest or weed control at 250 g/ha is 80%.
